{"source": "patent US20260250318A1", "about": "“COMPOSITIONS AND METHODS FOR CROSSING THE BLOOD BRAIN BARRIER” (VOYAGER THERAPEUTICS, INC., priority 2022, published 2026)", "data": [{"test_system": "brains, heart, liver, muscle, and DRG of the NHPs", "assay": "Maturation of TTM-001 and TTM-002 capsids, NGS enrichment in NHP tissues", "assay_type": "in vivo", "settings": "NGS fold-enrichment of matured AAV capsid variants; NHP brain, RNA; relative to AAV9 control", "in_short": "(§1)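 Variants carry mutations within and flanking the loop IV peptide insert: positions 450–466 were triplet-randomized, while positions 449–466 received low-frequency point mutations. The combined pool went into two NHPs, and each peptide was scored by NGS enrichment ratio against AAV9.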", "units": {"Fold Enrichment relative to AAV9, Brain (NHP)": "fold"}, "values": [{"sequence": "KTINGSGSPHSKAPSLQT", "Fold Enrichment relative to AAV9, Brain (NHP)": 52.137}, {"sequence": "KTINGSGSPHSKAQIGHT", "Fold Enrichment relative to AAV9, Brain (NHP)": 57.769}, {"sequence": "KTVNGGGSPHSKAQNLQT", "Fold Enrichment relative to AAV9, Brain (NHP)": 52.788}, {"sequence": "KTVNASGSPHSKAQNQLT", "Fold Enrichment relative to AAV9, Brain (NHP)": 51.249}, {"sequence": "KTINGSGSPHSKNQWQQT", "Fold Enrichment relative to AAV9, Brain (NHP)": 50.800}, {"sequence": "KTIIGSGSPHSKAQDRQT", "Fold Enrichment relative to AAV9, Brain (NHP)": 58.258}]}, {"test_system": "brains, heart, liver, muscle, and DRG of the NHPs", "assay": "Maturation of TTM-001 and TTM-002 capsids, NGS enrichment in NHP tissues", "assay_type": "in vivo", "settings": "NGS fold-enrichment, DRG of NHPs, relative to AAV9 control", "in_short": "as §1", "units": {"Fold Enrichment relative to AAV9, DRG (NHP)": "fold"}, "values": [{"sequence": "ETIKGSGSPHSKAQNQQT", "Fold Enrichment relative to AAV9, DRG (NHP)": 0.000}, {"sequence": "KTINGSGSPHSKAQKQQD", "Fold Enrichment relative to AAV9, DRG (NHP)": 0.000}, {"sequence": "KTINGSGSPHSKAQERPT", "Fold Enrichment relative to AAV9, DRG (NHP)": 0.000}]}, {"test_system": "brains, heart, liver, muscle, and DRG of the NHPs", "assay": "Maturation of TTM-001 and TTM-002 capsids, NGS enrichment in NHP tissues", "assay_type": "in vivo", "settings": "NGS fold-enrichment, RNA, brain of NHPs, relative to AAV9 control", "in_short": "as §1", "units": {"Fold Enrichment relative to AAV9, Brain (NHP)": "fold"}, "values": [{"sequence": "ETIKGSGSPHSKAQNQQT", "Fold Enrichment relative to AAV9, Brain (NHP)": 64.609}, {"sequence": "KTINGSGSPHSKAQKQQD", "Fold Enrichment relative to AAV9, Brain (NHP)": 70.116}, {"sequence": "KTINGSGSPHSKAQERPT", "Fold Enrichment relative to AAV9, Brain (NHP)": 63.460}]}, {"test_system": "brains, heart, liver, muscle, and DRG of the NHPs", "assay": "Maturation of TTM-001 and TTM-002 capsids, NGS enrichment in NHP tissues", "assay_type": "in vivo", "settings": "NGS fold-enrichment, heart of NHPs, relative to AAV9 control", "in_short": "as §1", "units": {"Fold Enrichment relative to AAV9, Heart (NHP)": "fold"}, "values": [{"sequence": "ETIKGSGSPHSKAQNQQT", "Fold Enrichment relative to AAV9, Heart (NHP)": 0.000}, {"sequence": "KTINGSGSPHSKAQKQQD", "Fold Enrichment relative to AAV9, Heart (NHP)": 0.024}, {"sequence": "KTINGSGSPHSKAQERPT", "Fold Enrichment relative to AAV9, Heart (NHP)": 0.011}]}, {"test_system": "brains, heart, liver, muscle, and DRG of the NHPs", "assay": "Maturation of TTM-001 and TTM-002 capsids, NGS enrichment in NHP tissues", "assay_type": "in vivo", "settings": "NGS fold-enrichment, liver DNA of NHPs, relative to AAV9 control", "in_short": "as §1", "units": {"Fold Enrichment relative to AAV9, Liver DNA (NHP)": "fold"}, "values": [{"sequence": "ETIKGSGSPHSKAQNQQT", "Fold Enrichment relative to AAV9, Liver DNA (NHP)": 0.024}, {"sequence": "KTINGSGSPHSKAQKQQD", "Fold Enrichment relative to AAV9, Liver DNA (NHP)": 0.083}, {"sequence": "KTINGSGSPHSKAQERPT", "Fold Enrichment relative to AAV9, Liver DNA (NHP)": 0.173}]}, {"test_system": "brains, heart, liver, muscle, and DRG of the NHPs", "assay": "Maturation of TTM-001 and TTM-002 capsids, NGS enrichment in NHP tissues", "assay_type": "in vivo", "settings": "NGS fold-enrichment, liver RNA of NHPs, relative to AAV9 control", "in_short": "as §1", "units": {"Fold Enrichment relative to AAV9, Liver RNA (NHP)": "fold"}, "values": [{"sequence": "ETIKGSGSPHSKAQNQQT", "Fold Enrichment relative to AAV9, Liver RNA (NHP)": 0.000}, {"sequence": "KTINGSGSPHSKAQKQQD", "Fold Enrichment relative to AAV9, Liver RNA (NHP)": 0.064}, {"sequence": "KTINGSGSPHSKAQERPT", "Fold Enrichment relative to AAV9, Liver RNA (NHP)": 0.810}]}, {"test_system": "brains, heart, liver, muscle, and DRG of the NHPs", "assay": "Maturation of TTM-001 and TTM-002 capsids, NGS enrichment in NHP tissues", "assay_type": "in vivo", "settings": "NGS fold-enrichment, muscle of NHPs, relative to AAV9 control", "in_short": "as §1", "units": {"Fold Enrichment relative to AAV9, Muscle (NHP)": "fold"}, "values": [{"sequence": "ETIKGSGSPHSKAQNQQT", "Fold Enrichment relative to AAV9, Muscle (NHP)": 0.144}, {"sequence": "KTINGSGSPHSKAQKQQD", "Fold Enrichment relative to AAV9, Muscle (NHP)": 0.000}, {"sequence": "KTINGSGSPHSKAQERPT", "Fold Enrichment relative to AAV9, Muscle (NHP)": 0.000}]}, {"test_system": "brains, heart, liver, muscle, and DRG of the NHPs", "assay": "Maturation of TTM-001 and TTM-002 capsids, NGS enrichment in NHP tissues", "assay_type": "in vivo", "settings": "NHP DRG; relative to AAV9 control", "in_short": "as §1", "units": {"Fold Enrichment relative to AAV9, DRG (NHP)": "fold"}, "values": [{"sequence": "KTINGSGSPHSKAPSLQT", "Fold Enrichment relative to AAV9, DRG (NHP)": 0.041}, {"sequence": "KTINGSGSPHSKAQIGHT", "Fold Enrichment relative to AAV9, DRG (NHP)": 0.024}, {"sequence": "KTVNGGGSPHSKAQNLQT", "Fold Enrichment relative to AAV9, DRG (NHP)": 0.000}, {"sequence": "KTVNASGSPHSKAQNQLT", "Fold Enrichment relative to AAV9, DRG (NHP)": 0.000}, {"sequence": "KTINGSGSPHSKNQWQQT", "Fold Enrichment relative to AAV9, DRG (NHP)": 0.000}, {"sequence": "KTIIGSGSPHSKAQDRQT", "Fold Enrichment relative to AAV9, DRG (NHP)": 1.393}]}, {"test_system": "brains, heart, liver, muscle, and DRG of the NHPs", "assay": "Maturation of TTM-001 and TTM-002 capsids, NGS enrichment in NHP tissues", "assay_type": "in vivo", "settings": "NHP heart; relative to AAV9 control", "in_short": "as §1", "units": {"Fold Enrichment relative to AAV9, Heart (NHP)": "fold"}, "values": [{"sequence": "KTINGSGSPHSKAPSLQT", "Fold Enrichment relative to AAV9, Heart (NHP)": 1.614}, {"sequence": "KTINGSGSPHSKAQIGHT", "Fold Enrichment relative to AAV9, Heart (NHP)": 0.000}, {"sequence": "KTVNGGGSPHSKAQNLQT", "Fold Enrichment relative to AAV9, Heart (NHP)": 0.031}, {"sequence": "KTVNASGSPHSKAQNQLT", "Fold Enrichment relative to AAV9, Heart (NHP)": 0.000}, {"sequence": "KTINGSGSPHSKNQWQQT", "Fold Enrichment relative to AAV9, Heart (NHP)": 0.044}, {"sequence": "KTIIGSGSPHSKAQDRQT", "Fold Enrichment relative to AAV9, Heart (NHP)": 0.230}]}, {"test_system": "brains, heart, liver, muscle, and DRG of the NHPs", "assay": "Maturation of TTM-001 and TTM-002 capsids, NGS enrichment in NHP tissues", "assay_type": "in vivo", "settings": "NHP liver, DNA; relative to AAV9 control", "in_short": "as §1", "units": {"Fold Enrichment relative to AAV9, Liver DNA (NHP)": "fold"}, "values": [{"sequence": "KTINGSGSPHSKAPSLQT", "Fold Enrichment relative to AAV9, Liver DNA (NHP)": 0.222}, {"sequence": "KTINGSGSPHSKAQIGHT", "Fold Enrichment relative to AAV9, Liver DNA (NHP)": 0.154}, {"sequence": "KTVNGGGSPHSKAQNLQT", "Fold Enrichment relative to AAV9, Liver DNA (NHP)": 0.165}, {"sequence": "KTVNASGSPHSKAQNQLT", "Fold Enrichment relative to AAV9, Liver DNA (NHP)": 0.268}, {"sequence": "KTINGSGSPHSKNQWQQT", "Fold Enrichment relative to AAV9, Liver DNA (NHP)": 0.324}, {"sequence": "KTIIGSGSPHSKAQDRQT", "Fold Enrichment relative to AAV9, Liver DNA (NHP)": 0.045}]}, {"test_system": "brains, heart, liver, muscle, and DRG of the NHPs", "assay": "Maturation of TTM-001 and TTM-002 capsids, NGS enrichment in NHP tissues", "assay_type": "in vivo", "settings": "NHP liver, RNA; relative to AAV9 control", "in_short": "as §1", "units": {"Fold Enrichment relative to AAV9, Liver RNA (NHP)": "fold"}, "values": [{"sequence": "KTINGSGSPHSKAPSLQT", "Fold Enrichment relative to AAV9, Liver RNA (NHP)": 0.902}, {"sequence": "KTINGSGSPHSKAQIGHT", "Fold Enrichment relative to AAV9, Liver RNA (NHP)": 0.281}, {"sequence": "KTVNGGGSPHSKAQNLQT", "Fold Enrichment relative to AAV9, Liver RNA (NHP)": 0.000}, {"sequence": "KTVNASGSPHSKAQNQLT", "Fold Enrichment relative to AAV9, Liver RNA (NHP)": 0.000}, {"sequence": "KTINGSGSPHSKNQWQQT", "Fold Enrichment relative to AAV9, Liver RNA (NHP)": 0.111}, {"sequence": "KTIIGSGSPHSKAQDRQT", "Fold Enrichment relative to AAV9, Liver RNA (NHP)": 0.000}]}, {"test_system": "brains, heart, liver, muscle, and DRG of the NHPs", "assay": "Maturation of TTM-001 and TTM-002 capsids, NGS enrichment in NHP tissues", "assay_type": "in vivo", "settings": "NHP muscle; relative to AAV9 control", "in_short": "as §1", "units": {"Fold Enrichment relative to AAV9, Muscle (NHP)": "fold"}, "values": [{"sequence": "KTINGSGSPHSKAPSLQT", "Fold Enrichment relative to AAV9, Muscle (NHP)": 0.002}, {"sequence": "KTINGSGSPHSKAQIGHT", "Fold Enrichment relative to AAV9, Muscle (NHP)": 0.000}, {"sequence": "KTVNGGGSPHSKAQNLQT", "Fold Enrichment relative to AAV9, Muscle (NHP)": 0.000}, {"sequence": "KTVNASGSPHSKAQNQLT", "Fold Enrichment relative to AAV9, Muscle (NHP)": 0.000}, {"sequence": "KTINGSGSPHSKNQWQQT", "Fold Enrichment relative to AAV9, Muscle (NHP)": 0.047}, {"sequence": "KTIIGSGSPHSKAQDRQT", "Fold Enrichment relative to AAV9, Muscle (NHP)": 0.219}]}, {"test_system": "brain", "assay": "Matured TTM-001 and TTM-002 variants, NGS enrichment in mouse brain", "assay_type": "in vivo, mice", "settings": "NGS fold-enrichment, brain of mice, relative to AAV9 control", "units": {"Fold Enrichment relative to AAV9, Brain (Mouse)": "fold"}, "values": [{"sequence": "ETIKGSGSPHSKAQNQQT", "Fold Enrichment relative to AAV9, Brain (Mouse)": 67.201}, {"sequence": "KTINGSGSPHSKAQKQQD", "Fold Enrichment relative to AAV9, Brain (Mouse)": 110.196}, {"sequence": "KTINGSGSPHSKAQERPT", "Fold Enrichment relative to AAV9, Brain (Mouse)": 57.506}]}, {"test_system": "brain", "assay": "Matured TTM-001 and TTM-002 variants, NGS enrichment in mouse brain", "assay_type": "in vivo, mice", "settings": "mouse brain; relative to AAV9 control", "units": {"Fold Enrichment relative to AAV9, Brain (Mouse)": "fold"}, "values": [{"sequence": "KTINGSGSPHSKAPSLQT", "Fold Enrichment relative to AAV9, Brain (Mouse)": 70.363}, {"sequence": "KTINGSGSPHSKAQIGHT", "Fold Enrichment relative to AAV9, Brain (Mouse)": 99.262}, {"sequence": "KTVNGGGSPHSKAQNLQT", "Fold Enrichment relative to AAV9, Brain (Mouse)": 83.215}, {"sequence": "KTVNASGSPHSKAQNQLT", "Fold Enrichment relative to AAV9, Brain (Mouse)": 99.559}, {"sequence": "KTINGSGSPHSKNQWQQT", "Fold Enrichment relative to AAV9, Brain (Mouse)": 65.506}, {"sequence": "KTIIGSGSPHSKAQDRQT", "Fold Enrichment relative to AAV9, Brain (Mouse)": 53.981}]}]}
